The values below come from patent US20220354849A1, “COMPOSITION FOR PREVENTING OR TREATING METABOLIC LIVER DISEASE” (STANDIGM INC., priority 2019, published 2022).

Where “and” joins values, the source holds several entries; their conditions need not be identical. Equal entries are not always repeated.

The subject of test [1] is NASH model mice. The experiment in a line: NASH model mice (STZ + high-fat diet), intraperitoneal trametinib study: liver histology, NAFLD activity score, fibrosis area, liver weight. In kind it is in vivo, mouse (C57BL/6). Also noted: key to NAFLD activity score (NAS): NAS: sum of steatosis, inflammation, ballooning scores (Kleiner criteria); key to steatosis score / ballooning score: severity score per Kleiner's criteria on H&E sections; fibrosis area score (sirius red-positive area): unit not given here. The following applies: for fibrosis area score (sirius red-positive area) / NAFLD activity score (NAS): telmisartan 10 mg/kg p.o., once daily 6 to 9 weeks of age; for fibrosis area score (sirius red-positive area): vehicle 0.89±0.19; for NAFLD activity score (NAS): vehicle 4.38±0.52. An excerpt:
(§1) Pathogen-free C57BL/6 mice on the 14th day of pregnancy were obtained from Japan SLC, Inc. (Japan).
(§2) NASH was established in male mice by a single subcutaneous injection of […] streptozotocin (STZ, Sigma, USA) 2 days after birth and feeding with a high-fat diet (CLEA Japan Inc., Japan) ad libitum after 4 weeks of age (day 28±2).
On the day before the start of administration based on the body weight of mice, the NASH mice at 6 weeks of age (day 42±2) prepared in Example 1 were randomly divided into 3 groups of 8 mice.
The present inventors selected trametinib as a substance expected to have a therapeutic effect on non-alcoholic steatohepatitis through a screening method using artificial intelligence (AI) deep learning technology. In order to identify whether the substance has an effect on non-alcoholic steatohepatitis, the 3 groups of mice were each intraperitoneally or orally administered with the following compounds at an amount of about […]. As the negative control group of trametinib in the present invention, the vehicle administration group was treated with a solvent of the same amount used for compound dissolution. Telmisartan (Boehringer Ingelheim GmbH, Germany) was used in the positive control group. The telmisartan is a compound which has anti-NASH, anti-fibrosis, and anti-inflammatory effects in NASH and in a liver disease animal model related to NASH.
Group 1 (vehicle administration group: negative control group): 8 NASH mice were intraperitoneally administered with a vehicle (4% DMSO in saline) in a volume of 5 mL/kg once daily from 6 weeks to 9 weeks of age.
Group 2 (telmisartan administration group: positive control group): 8 NASH mice were orally administered with purified water supplemented with telmisartan at a dose of 10 mg/kg once daily from 6 weeks to 9 weeks of age.
Group 3 (trametinib administration group: experimental group): 8 NASH mice were intraperitoneally administered with a vehicle supplemented with trametinib at a dose of 2 mg/kg once daily from 6 weeks to 9 weeks of age.
(§3) The body weight of each mouse was measured daily during the administration period, and the survival rate, clinical symptoms, and behaviors of each mouse were monitored daily.
For histological analysis of liver tissue, mice in Groups 1 to 3 were sacrificed at 9 weeks of age, and the liver was excised therefrom.
For H&E staining, after sectioning liver tissue, a liver tissue slide fixed with paraffin was immersed in a xylene solution for 3 minutes to remove the paraffin. Thereafter, in order to remove the xylene, the liver tissue slide was immersed in 100% ethanol for 3 minutes and then hydrated with distilled water. Subsequently, the liver tissue slide was immersed in a hematoxylin solution for 5 to 10 minutes and then hydrated with distilled water for 5 minutes, followed by quickly immersing it twice in a 1% HCl solution, and then hydrating with distilled water. Then, the liver tissue slide was immersed in a 1% ammonia solution for 2 minutes to stain the tissue blue. Thereafter, the liver tissue stained blue was immersed in an eosin solution for 2 minutes, followed by immersing the resultant in ethanol for about 3 to 5 minutes. Lastly, the liver tissue was immersed in a xylene solution, whereupon the thus-stained liver fragment was observed under a microscope.
The NAFLD activity score (NAS) is a combined value obtained by considering each condition of steatosis, inflammation, and ballooning, which are observed in a liver section stained with H&E. The NAFLD score was calculated according to Kleiner's criteria (Kleiner DE et al., 2005).
Steatosis, inflammation, and ballooning scores were determined according to severity of symptoms based on observation in H&E-stained liver sections.
For sirius red staining, a sirius red reagent was maintained in an equilibrium state and stirred gently. […]

Test [2] relates to NASH model mice. The experiment in a line: NASH model mice (STZ + high-fat diet), oral trametinib study: liver histology, NAFLD activity score, fibrosis area, liver weight. In kind it is in vivo, mouse (C57BL/6). The following applies: for fibrosis area score (sirius red-positive area) / NAFLD activity score (NAS): telmisartan 10 mg/kg p.o., once daily 6 to 9 weeks of age; for fibrosis area score (sirius red-positive area): vehicle 0.69±0.13; for NAFLD activity score (NAS): vehicle 4.29±0.49. Also noted: fibrosis area score (sirius red-positive area): unit not given here.
Excerpt: as §1, §2
In order to determine a safe oral administration dose of trametinib, as in Example 2, the NASH mice in Example 1 were randomly divided into 3 groups of 7 or 8 mice.Thereafter, the mice of 3 groups were orally administered with the following compounds at about […].
Group 1 (vehicle administration group:negative control group): 7 NASH mice were orally administered with a vehicle (1% DMSO in saline) in a volume of 10 mL/kg once daily from 6 weeks to 9 weeks of age.
Group 2 (telmisartan administration group:positive control group): 8 NASH mice were orally administered with purified water supplemented with telmisartan at a dose of 10 mg/kg (in a volume of 10 mL/kg) once daily from 6 weeks to 9 weeks of age.
Group 3 (trametinib administration group:experimental group): 8 NASH mice were orally administered with a vehicle supplemented with trametinib at a dose of 0.2 mg/kg (in a volume of 10 mL/kg) once daily from 6 weeks to 9 weeks of age.
as §3
For histological analysis of liver tissue, mice in Groups 1 to 3 of Example 5 were sacrificed at 9 weeks of age, and then H&E staining, NAFLD activity score measurement, and sirius red staining were performed according to the method of Example 3.
The NAFLD activity score for liver tissue was estimated according to the method of Example 3-2.
According to the method of Example 3-4, a percentage of a fibrosis area due to inflammation and a value of a sirius red-positive area were each estimated through sirius red staining.
Statistical analysis of the data of the Examples above was performed using the Bonferroni Multiple Comparison Test. p<0.05 was regarded as statistically significant.

The mark [3] stands for this setting: trametinib 2 mg/kg i.p. once daily, 6 to 9 weeks of age.
Setting [4] is: trametinib 0.2 mg/kg p.o. once daily, 6 to 9 weeks of age.

`CCCc1nc2c(C)cc(-c3nc4ccccc4n3C)cc2n1Cc1ccc(-c2ccccc2C(=O)O)cc1` [telmisartan]: the “number of subjects with a steatosis score of 1” value in the test with NASH model mice [1] (telmisartan 10 mg/kg p.o. once daily, 6 to 9 weeks of age, 8 mice, vehicle 6 subjects) came out at 1. Moreover, in the test with NASH model mice [1] (trametinib 2 mg/kg i.p.), the “fibrosis area score (sirius red-positive area)” value (“fibrosis area score” below) was 0.40±0.15 and 0.4; the “NAFLD activity score (NAS)” value was determined as 2.75±0.46. For the same molecule, in the test with NASH model mice [2] (trametinib 0.2 mg/kg p.o.), the “fibrosis area score” value was 0.44±0.06 and 0.4; the “NAFLD activity score (NAS)” value was determined as 2.25±0.46.
As for `CC(=O)Nc1cccc(-n2c(=O)n(C3CC3)c(=O)c3c(Nc4ccc(I)cc4F)n(C)c(=O)c(C)c32)c1` [trametinib, N—(3—{3—cyclopropyl—5-[(2-fluoro-4-iodophenyl)amino]-6,8-dimethyl-2,4,7-trioxo-3 ,4,6,7-tetrahydropyrido [4,3-d]pyrimidin-1(2H)-yl}phenyl)acetamide], the steatosis score with NASH model mice [1] (trametinib 2 mg/kg i.p. once daily from 6 to 9 weeks of age, H&E liver sections, vehicle average 0.8) is 0; in the test with NASH model mice [2] (trametinib 0.2 mg/kg p.o. once daily, 6 to 9 weeks of age, mean ± standard deviation, vehicle 0.86±0.38), 0.38±0.52 and 0.4. Further, the “fibrosis (sirius red staining) compared to vehicle administration group” value in the test on NASH model mice [1] (setting [3]) is “alleviated”. Also, the “pathological conditions of liver tissue (H&E staining) compared to vehicle administration group” value in the test with NASH model mice [1] (setting [3]) and in the test on NASH model mice [2] (setting [4]) was “improved” in each case. Further, the “reduction of average liver weight compared to vehicle administration group” value in the test on NASH model mice [1] (setting [3]) is listed as 40%. Moreover, the “subjects with a ballooning score of 0, share of total number of subjects” value in the test on NASH model mice [1] (setting [3]) is on record as 100%. Besides, the “number of subjects with a ballooning score of 0” value in the test with NASH model mice [1] (trametinib 2 mg/kg i.p. once daily, 6 to 9 weeks of age, 8 mice) was “eight”. The ballooning score with NASH model mice [1] (trametinib 2 mg/kg i.p. once daily, 6 to 9 weeks of age, all subjects) is 0. Besides, the liver-to-body weight ratio is 5.3±0.96% in the test on NASH model mice [1] (trametinib 2 mg/kg i.p. once daily, 6 to 9 weeks of age, vehicle 7.0±0.8%) and 7.4±0.8% in the test with NASH model mice [2] (trametinib 0.2 mg/kg p.o. once daily, 6 to 9 weeks of age, vehicle 8.7±0.8%). Further, the average liver weight is 873 ± 218 mg in the test with NASH model mice [1] (trametinib 2 mg/kg i.p. once daily, 6 to 9 weeks of age, vehicle 1444±106 mg) and 1466 ± 169 mg in the test with NASH model mice [2] (trametinib 0.2 mg/kg p.o. once daily, 6 to 9 weeks of age, vehicle 1776±189 mg). In addition, the “fibrosis area score” value in the test on NASH model mice [1] (trametinib 2 mg/kg i.p.) was 0.50±0.13 and 0.5; in the test on NASH model mice [2] (trametinib 0.2 mg/kg p.o.), 0.34±0.15 and 0.3. For the same molecule, the entries for the “NAFLD activity score (NAS)” value in the test with NASH model mice [1] (trametinib 2 mg/kg i.p.) and in the test with NASH model mice [2] (trametinib 0.2 mg/kg p.o.) were 2.63±0.52 and 2.88±1.13, respectively. The “percentage of fibrosis area compared to vehicle administration group” value with NASH model mice [1] (trametinib 2 mg/kg i.p., sirius red staining, p<0.0001) is “remarkable decrease”; with NASH model mice [2] (trametinib 0.2 mg/kg p.o., sirius red staining) it was “reduced”. Besides, in the test with NASH model mice [2] (setting [4]), the “pathological conditions (sirius red staining) compared to vehicle administration group” value was “improved”. Further, the inflammation score in the test with NASH model mice [2] (trametinib 0.2 mg/kg p.o. once daily, 6 to 9 weeks of age, vehicle 2.71±0.49) was 1.75±0.71 and 1.8. For the same molecule, the “number of subjects with a steatosis score of 1” value in the test with NASH model mice [2] (trametinib 0.2 mg/kg p.o. once daily, 8 mice, vehicle 6 subjects) came to 3.
